Earlier results in patent publication US12678407B2 (HANMI PHARM. CO., LTD., priority 2020, dated 2026).

Conditions: according to FDA Clinical Pharmacology Biopharmaceutics Review

CCOc1ccc(Cc2cc([C@@H]3O[C@H](CO)[C@@H](O)[C@H](O)[C@H]3O)ccc2Cl)cc1 [dapagliflozin, (2S,3R,4R,5S,6R)-2-[4-chloro-3-(4-ethoxybenzyl)phenyl]-6-(hydroxymethyl)tetrahydro-2H-pyran-3,4,5-triol]
bioavailability: 87%

N[C@@H](CC(=O)N1CCn2c(nnc2C(F)(F)F)C1)Cc1cc(F)c(F)cc1F [sitagliptin, (R)-3-amino-1-(3-(trifluoromethyl)-5,6-dihydro-[1,2,4]triazole[4,3-a]pyrazin-7(8H)-yl)-4-(2,4,5-trifluorophenyl)butan-1-one]
bioavailability: 78%
